Consider 1 compound from patent US20250041284A1, “TREATMENT OF NEUROLOGICAL DISORDERS” (Praxis Precision Medicines, Inc., priority 2022, published 2025).

The series can be described thus: Phase 1 clinical trial, single ascending dose (Part A), healthy volunteers. Type of series: in vivo, human. Conditions: healthy participants, single oral doses up to 45 mg. The source says:
This is a trial to assess the safety, tolerability, pharmacokinetics (PK), and pharmacodynamics (PD) of Compound 1 in healthy participants aged 18 to 55 years (inclusive). The trial is initially comprised of 2 parts, with 1 additional optional part, as follows: • Part A is randomized, double-blinded, and placebo-controlled. Part A is designed to investigate the safety, PK, and PD of single ascending doses of Compound 1. • Part B is randomized, double-blinded, and placebo-controlled. Part B is designed to investigate the safety, PK, and PD of multiple ascending doses (selected based on the results from Part A) of Compound 1. • Part C (optional) is a randomized, open-label, crossover design food effect evaluation to investigate the PK of a single dose (selected based on the results from Part A) of Compound 1 in the fasted and fed state.
Safety and tolerability assessments for Parts A, B, and C will include vital signs, 12-lead ECGs, physical examinations, clinical laboratory tests, and the C-SSRS (for Part B).
Healthy participants will be enrolled to receive single ascending oral doses of Compound 1 or placebo on Day 1. FIG. 14A is an illustration of the dosing scheme for Part A (single ascending dose) of the trial. Dose escalation in Part A will initially be conducted in up to a total of 4 planned cohorts (Cohorts A1 to A4). Following completion of Cohort A4, up to an additional 3 escalation cohorts may be added. […] Doses may be adjusted upward or downward based on safety, tolerability, and PK data from the preceding cohorts. Cohorts after A4 will be numbered sequentially (A5, A6, etc.). […]
Compound 1 will be administered to Cohort A1 participants at the starting dose of 5 mg. […] The safety and tolerability of each sentinel participant will be monitored until Day 2 and will be reviewed prior to dosing the remainder of participants in the cohort. […]
Cohorts will be dosed in an escalating order. […] If the current dose level is determined to be safe and tolerated by the SRC, the next dose cohort will be randomized to receive the selected dose of active Compound 1 or placebo. […]

Turning to `CCOC(F)(F)c1nnc2ccc(-c3cnc(OCC(F)(F)F)c(F)c3)cn12` [Compound 1], the “most frequently reported TEAEs” value is “headache and fatigue”; the safety and tolerability entry is “safe and generally well tolerated”; the “severity of treatment-emergent adverse events (TEAEs)” value was “mild in severity”.
